This passage reports IC50 results from PubChem BioAssay AID1159564 (GlaxoSmithKline (GSK), 2015).

For this test, the system named is L. donovani-infected THP-1 macrophages, intracellular amastigote imaging. Put plainly: intracellular L. donovani amastigote inhibition, imaging, THP-1 host macrophages, host toxicity (AID 1159564).
Setting [1] is: measured here: THP-1 host cell toxicity.
Where [2] appears, read: measured here: amastigotes per macrophage.

Active and inactive are the calls of the source. No rule for the calls is given here.

A word on the IC50: it is the concentration that gives 50% inhibition.

Regarding `CCCn1c(NC(=O)Cc2ccc(Cl)cc2)nc2ccccc21`, the IC50 was 5 µM. Under setting [1], this molecule showed an IC50 of over 50 µM. This molecule also yielded an IC50 under setting [2] of 3.2 µM.
As for `CNc1c(C(N)=O)c(-c2ccc3scnc3c2)nn1CC(F)(F)F`, the IC50 was > 50 µM (inactive). The molecule also registered an IC50 under setting [1] of over 50 µM. Under setting [2], this molecule had an IC50 of over 50 µM.
In the case of `COc1cccc(-c2c(C)nn(-c3nc(N)nc(-c4ccccn4)n3)c2N)c1`, the IC50 was 2 µM. The molecule also registered an IC50 under setting [1] of over 50 µM. This molecule also yielded an IC50 under setting [2] of 1.6 µM.
For `CS(=O)(=O)NC1CCC(Oc2cc3cnccc3cc2-c2ccsc2)CC1` (stereo unspecified), the IC50 was 50 µM. This molecule also showed an IC50 under setting [1] of 16 µM. The molecule further yielded an IC50 under setting [2] of 20 µM.
Turning to `Cc1nn(-c2ccccc2)nc1CNC(=O)CN(Cc1ccccn1)Cc1ccccn1`, the IC50 is 5 µM. Besides, the IC50 under setting [1] was found to be 63 µM. The IC50 under setting [2] was 5 µM.
On to `CCc1cccc(CC)c1-n1c(SCC(=O)NC(=O)NCc2ccco2)nnc1-c1cccnc1`, for which the IC50 is > 50 µM (inactive). Under setting [1], this molecule registered an IC50 of over 50 µM. This molecule also showed a 50% inhibitory concentration (IC50) under setting [2] of over 50 µM.
Turning to `O=C1NCc2cccc(Nc3nc(NC4CCC(O)CC4)ncc3Br)c21` (stereo unspecified), the half-inhibitory concentration (IC50) was 0.16 µM. The IC50 under setting [1] amounted to 0.1 µM. For the same molecule, the IC50 under setting [2] was determined as 0.13 µM.
Consider `CCc1nn(-c2ncc(F)c(NC(C)C)n2)c(N)c1C1CCCCC1`, for which the IC50 is 3.2 µM. This molecule came in with an IC50 under setting [1] of 16 µM. Besides, the IC50 under setting [2] worked out at 1.6 µM.
Take `O=c1ccn(-c2ccc([N+](=O)[O-])cc2Cl)c2ccc(F)cc12`: the IC50 is > 50 µM (inactive). Under setting [1], this molecule gave an IC50 of over 50 µM. Also, the IC50 under setting [2] is over 50 µM.
Take `Cc1nc(-c2nc(NCc3ccc(Cl)cc3)c3cccnc3c2O)n[nH]1`: the IC50 was 0.5 µM. Under setting [1], the IC50 amounted to 6.3 µM. The molecule further came in with an IC50 under setting [2] of 0.5 µM.
For `Clc1ccc(OCCN2CCCCC2c2cccnc2)c(Cl)c1` (stereo unspecified), the IC50 is > 50 µM (inactive). In addition, the IC50 under setting [1] was over 50 µM. Also, under setting [2], the IC50 is 5 µM.
Consider `COCCn1c(-c2ccccc2)cnc1NCc1ccccc1OC`, for which the IC50 was 6.3 µM. The molecule also displayed an IC50 under setting [1] of 50 µM. Besides, the IC50 under setting [2] stood at 6.3 µM.
In the case of `OC1CCC(Nc2nccc(-c3sc(C4CCOCC4)nc3-c3ccc(F)c(F)c3)n2)CC1` (stereo unspecified), the IC50 is 5 µM. The molecule also gave an IC50 under setting [1] of 20 µM. This molecule gave an IC50 under setting [2] of 2.5 µM.
With `CC1CN(Cc2ccc(C#N)cc2)CCN1c1ccc(NC(=O)c2ccccc2F)cc1` (stereo unspecified), the IC50 was 10 µM. The IC50 under setting [1] is over 50 µM. The IC50 under setting [2] worked out at 5 µM.
As for `O=C(CSc1nnc(-c2ccc3c(c2)OCO3)o1)N(Cc1ccco1)CC(F)(F)F`, the IC50 was 7.9 µM. Under setting [1], this molecule gave an IC50 of over 50 µM. Under setting [2], this molecule yielded an IC50 of 3.2 µM.
For `N#Cc1ccccc1S(=O)(=O)N1CCN(C(=O)CNC(=O)c2ccc3c(c2)OCO3)CC1`, in that order: 5 µM, over 50 µM and 1.6 µM.
Turning to `CCOc1cc(NCCCN2CCN(C)CC2)c2ncccc2c1`, the IC50 is 1.3 µM. Under setting [1], this molecule gave an IC50 of 6.3 µM. This molecule also displayed an IC50 under setting [2] of 0.79 µM.
`CN(C)c1ccc(N)cc1CN(CC1CCCO1)S(C)(=O)=O` (stereo unspecified): the IC50 was 13 µM. Moreover, the IC50 under setting [1] is over 50 µM. The same molecule returned an IC50 under setting [2] of 10 µM.
`CC(CCc1ccccc1)NC(=O)CN(Cc1ccccn1)Cc1ccccn1` (stereo unspecified): the IC50 was 3.2 µM. Under setting [1], this molecule had an IC50 of 20 µM. This molecule also gave an IC50 under setting [2] of 3.2 µM.
Consider `CCC(=O)Nc1ccccc1C(=O)Nc1ccccn1`, for which the IC50 was > 50 µM (inactive). This molecule showed an IC50 under setting [1] of over 50 µM. Moreover, the IC50 under setting [2] is over 50 µM.
For the molecule `CN1CCCN(C(=O)c2ccc(N3CCCC3)cc2Cl)CC1`, the IC50 was > 50 µM (inactive). Moreover, under setting [1], the IC50 is over 50 µM. For the same molecule, under setting [2], the IC50 is over 50 µM.
Turning to `Cc1cc(C)n(-c2nc(NC(C)C)nc(NC(C)(C)C)n2)n1`, the IC50 was 5 µM. Besides, the IC50 under setting [1] is 6.3 µM. The molecule also came in with an IC50 under setting [2] of 4 µM.
For `CCCC(=O)N(Cc1ccccn1)c1nc2ccccc2s1`, in that order: > 50 µM (inactive), over 50 µM and 10 µM.
On to `CC(C)c1cc(C(=O)N2CCCC(c3cc4ncccc4[nH]3)C2)on1` (stereo unspecified), for which the IC50 is > 50 µM (inactive). Under setting [1], this molecule returned an IC50 of over 50 µM. In addition, the IC50 under setting [2] was over 50 µM.
Consider `CN1CCC(N(C)c2nccc(N3CCN(C(=O)c4cccc(-c5cccnc5)c4)CC3)n2)CC1`, for which the half-inhibitory concentration (IC50) was 1.3 µM. Also, the IC50 under setting [1] was 7.9 µM. Under setting [2], the IC50 stood at 1.3 µM.
Regarding `CS(=O)(=O)c1ccc(Nc2nccc(Nc3n[nH]c4ccc(F)cc34)n2)c(F)c1`, the IC50 is 13 µM. The IC50 under setting [1] was found to be 16 µM. Moreover, under setting [2], the IC50 turned out to be 10 µM.
Turning to `C=CCOCC1Cn2nc([N+](=O)[O-])nc2O1` (stereo unspecified), the IC50 was > 50 µM (inactive). Further, the IC50 under setting [1] was over 50 µM. The molecule also came in with an IC50 under setting [2] of over 50 µM.
